Reference: ChEMBL document CHEMBL1135793 (J Med Chem, 2002)
Positions of bridges follow the written chain, without caps; N, C: chain ends. Non-standard residues stand in square brackets, D forms with d. Residues, ends and D or L forms follow the SMILES beside them. Nle = CCCC[C@H](N)C(=O)O

Biological target: Urokinase plasminogen activator surface receptor (Homo sapiens, UniProt Q03405)
Assay: Inhibitory activity against human Urokinase plasminogen activator receptor (uPAR) was determined

Chain of Urokinase plasminogen activator surface receptor (Q03405 whole entry): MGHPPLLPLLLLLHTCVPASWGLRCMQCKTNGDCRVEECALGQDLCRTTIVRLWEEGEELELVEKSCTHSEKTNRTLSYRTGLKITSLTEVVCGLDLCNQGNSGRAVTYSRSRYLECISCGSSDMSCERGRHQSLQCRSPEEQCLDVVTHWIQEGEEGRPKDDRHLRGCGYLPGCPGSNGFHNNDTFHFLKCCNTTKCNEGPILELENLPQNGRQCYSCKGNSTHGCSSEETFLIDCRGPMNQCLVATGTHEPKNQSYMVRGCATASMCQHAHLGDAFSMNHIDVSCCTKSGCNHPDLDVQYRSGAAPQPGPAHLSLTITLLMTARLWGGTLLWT

For `CC[C@H](C)[C@@H]1NC(=O)[C@H](CC(N)=O)NC(=O)[C@H](CO)NC(=O)[C@H](Cc2ccccc2)NC(=O)[C@H](Cc2ccc(O)cc2)NC(=O)[C@H](CCCCN)NC(=O)[C@@H](CC(N)=O)NC(=O)[C@@H](N)CSSC[C@@H](C(=O)N[C@@H](Cc2c[nH]c3ccccc23)C(=O)O)NC1=O`, the IC50 was greater than 30000 nM.

In the case of `CC[C@H](C)[C@@H]1NC(=O)[C@H](CC(N)=O)NC(=O)[C@H](CO)NC(=O)[C@H](Cc2ccccc2)NC(=O)[C@H](Cc2cccc3ccccc23)NC(=O)[C@H](CCCCN)NC(=O)[C@H](CC(N)=O)NC(=O)[C@H](N)CSSC[C@@H](C(=O)N[C@@H](Cc2c[nH]c3ccccc23)C(=O)O)NC1=O`, the IC50 is reported as 50 nM.

Compound `CC[C@H](C)[C@@H]1NC(=O)[C@@H](CC(N)=O)NC(=O)[C@H](CO)NC(=O)[C@H](Cc2ccccc2)NC(=O)[C@H](Cc2ccc(O)cc2)NC(=O)[C@H](CCCCN)NC(=O)[C@H](CC(N)=O)NC(=O)[C@@H](N)CSSC[C@@H](C(=O)N[C@@H](Cc2c[nH]c3ccccc23)C(=O)O)NC1=O` has an IC50 greater than 30000 nM.

`CC[C@H](C)[C@@H]1NC(=O)[C@H](CC(N)=O)NC(=O)[C@H](CO)NC(=O)[C@H](Cc2ccccc2)NC(=O)[C@H](Cc2ccc(O)cc2)NC(=O)[C@H](CCCCN)NC(=O)[C@H](CC(N)=O)NC(=O)[C@H](N)CSSC[C@@H](C(=O)N[C@@H](Cc2c[nH]c3ccccc23)C(=O)O)NC1=O` showed an IC50 of 40 nM.

`CC[C@H](C)[C@@H]1NC(=O)[C@H](CC(N)=O)NC(=O)[C@H](CO)NC(=O)[C@H](Cc2ccccc2)NC(=O)[C@H](Cc2ccc(O)cc2)NC(=O)[C@H](CCCCN)NC(=O)[C@H](CC(N)=O)NC(=O)[C@H](CO)NC(=O)[C@H](C(C)C)NC(=O)[C@@H](N)CSSC[C@@H](C(=O)O)NC(=O)[C@H](Cc2c[nH]c3ccccc23)NC(=O)[C@H](Cc2c[nH]cn2)NC1=O` was tested, and the IC50 was 700 nM.

Compound `CC[C@H](C)[C@@H]1NC(=O)[C@H](CC(N)=O)NC(=O)[C@@H](CO)NC(=O)[C@H](Cc2ccccc2)NC(=O)[C@H](Cc2ccc(O)cc2)NC(=O)[C@H](CCCCN)NC(=O)[C@H](CC(N)=O)NC(=O)[C@@H](N)CSSC[C@@H](C(=O)N[C@@H](Cc2c[nH]c3ccccc23)C(=O)O)NC1=O` has an IC50 greater than 30000 nM.

`CC[C@H](C)[C@@H]1NC(=O)[C@H](CC(N)=O)NC(=O)[C@H](CO)NC(=O)[C@H](Cc2ccccc2)NC(=O)[C@H](Cc2ccc3ccccc3c2)NC(=O)[C@H](CCCCN)NC(=O)[C@H](CC(N)=O)NC(=O)[C@H](N)CSSC[C@@H](C(=O)N[C@@H](Cc2c[nH]c3ccccc23)C(=O)O)NC1=O` gave an IC50 of 80 nM.

`CC[C@H](C)[C@@H]1NC(=O)[C@H](CC(N)=O)NC(=O)[C@H](CO)NC(=O)[C@H](Cc2ccccc2)NC(=O)[C@H](Cc2ccc(O)cc2)NC(=O)[C@H](CCCCN)NC(=O)[C@H](CC(N)=O)NC(=O)[C@H](CO)NC(=O)[C@H](C(C)C)NC(=O)[C@H](N)CSSC[C@@H](C(=O)O)NC(=O)[C@H](Cc2c[nH]c3ccccc23)NC(=O)[C@H](Cc2c[nH]cn2)NC1=O` gave an IC50 of 200 nM.

`CC[C@H](C)[C@@H]1NC(=O)[C@H](CC(N)=O)NC(=O)[C@H](CO)NC(=O)[C@H](Cc2ccccc2)NC(=O)[C@H](Cc2ccc(O)cc2)NC(=O)[C@@H](CCCCN)NC(=O)[C@H](CC(N)=O)NC(=O)[C@@H](N)CSSC[C@@H](C(=O)N[C@@H](Cc2c[nH]c3ccccc23)C(=O)O)NC1=O` was tested, and the IC50 was greater than 30000 nM.

Work on `CC[C@H](C)[C@@H]1NC(=O)[C@H](CC(N)=O)NC(=O)[C@H](CO)NC(=O)[C@H](Cc2ccccc2)NC(=O)[C@H](Cc2ccc(O)cc2)NC(=O)[C@H](CCCCN)NC(=O)[C@H](CC(N)=O)NC(=O)[C@@H](N)CSSC[C@@H](C(=O)N[C@@H](Cc2c[nH]c3ccccc23)C(=O)O)NC1=O` yielded an IC50 of 900 nM.

`CCCC[C@@H]1NC(=O)[C@H](CC(N)=O)NC(=O)[C@H](N)CSSC[C@@H](C(=O)N[C@@H](Cc2c[nH]c3ccccc23)C(=O)O)NC(=O)[C@H]([C@@H](C)CC)NC(=O)[C@H](CC(N)=O)NC(=O)[C@H](CO)NC(=O)[C@H](Cc2ccccc2)NC(=O)[C@H](Cc2ccc(O)cc2)NC1=O` (H-[dC]N[Nle]YFSNICW-OH; disulfide 1-9) showed an IC50 of 60 nM.
